Paper PMC12454493, “Insight on novel sulfamoylphenyl pyrazole derivatives as anticancer carbonic anhydrase inhibitors” (Molecular Diversity, 2024)

Columns and labels:
Type in all cases: cell-based
SK-OV-3 = test: NCI-60 one-dose SRB screen (Ovarian cancer); conditions: Homo sapiens, single dose 10 µM, 48 h, read-out: Growth inhibition percent (GI %)
Protocol: (§1) The National Cancer Institute (NCI) Developmental Therapeutic Program (www.dtp.nci.nih.gov) selected the 20 novel synthesized compounds 4a-e, 5a-e, 6a-c, 9a-e, 10 and 11 to test for their anticancer activity at a single dose of 10 µM using SRB assay. […] Supplementary Data S3; Table S1 presents the detailed screening results of the most promising compounds. The preliminary screening’s detailed results for the remaining compounds are elucidated in the (Supplementary Data S3; Table S2).
(§2) The guidelines of the Drug Evaluation Branch’s protocol at the NCI in Bethesda served as the basis for the in vitro anticancer screening assays. at one dose 10 µM against a panel of 60 cancer cell lines. The human tumor cell lines used belonged to nine panels: leukemia, melanoma, lung, colon, CNS, ovarian, renal, prostate and breast cancers using the sulforhodamine B (SRB) assay in a 48 h drug exposure protocol.

OVCAR-8 = test: NCI-60 one-dose SRB screen (Ovarian cancer); conditions: Homo sapiens, single dose 10 µM, 48 h, read-out: Growth inhibition percent (GI %)
Protocol: as §1, §2

IGROV1 = test: NCI-60 one-dose SRB screen (Ovarian cancer); conditions: Homo sapiens, IGROV-1, single dose 10 µM, 48 h, read-out: Growth inhibition percent (GI %)
Protocol: as §1, §2

OVCAR-3 = test: NCI-60 one-dose SRB screen (Ovarian cancer); conditions: Homo sapiens, single dose 10 µM, 48 h, read-out: Growth inhibition percent (GI %)
Protocol: as §1, §2

OVCAR-5 = test: NCI-60 one-dose SRB screen (Ovarian cancer); conditions: Homo sapiens, single dose 10 µM, 48 h, read-out: Growth inhibition percent (GI %)
Protocol: as §1, §2

OVCAR-4 = test: NCI-60 one-dose SRB screen (Ovarian cancer); conditions: Homo sapiens, single dose 10 µM, 48 h, read-out: Growth inhibition percent (GI %)
Protocol: as §1, §2

HOP-62 = test: NCI-60 one-dose SRB screen (Non-Small Cell Lung Cancer); conditions: Homo sapiens, single dose 10 µM, 48 h, read-out: Growth inhibition percent (GI %)
Protocol: as §1, §2

NCI-H23 = test: as above; conditions: Homo sapiens, single dose 10 µM, 48 h, read-out: Growth inhibition percent (GI %)
Protocol: as §1, §2

NCI-H226 = test: as above; conditions: Homo sapiens, single dose 10 µM, 48 h, read-out: Growth inhibition percent (GI %)
Protocol: as §1, §2

NCI-H460 = test: as above; conditions: Homo sapiens, single dose 10 µM, 48 h, read-out: Growth inhibition percent (GI %)
Protocol: as §1, §2

HOP-92 = test: as above; conditions: Homo sapiens, single dose 10 µM, 48 h, read-out: Growth inhibition percent (GI %)
Protocol: as §1, §2

NCI-H522 = test: as above; conditions: Homo sapiens, single dose 10 µM, 48 h, read-out: Growth inhibition percent (GI %)
Protocol: as §1, §2

EKVX = test: as above; conditions: Homo sapiens, single dose 10 µM, 48 h, read-out: Growth inhibition percent (GI %)
Protocol: as §1, §2

NCI-H322M = test: as above; conditions: Homo sapiens, single dose 10 µM, 48 h, read-out: Growth inhibition percent (GI %)
Protocol: as §1, §2

A549/ATCC = test: as above; conditions: Homo sapiens, single dose 10 µM, 48 h, read-out: Growth inhibition percent (GI %)
Protocol: as §1, §2

DU-145 = test: NCI-60 one-dose SRB screen (Prostate Cancer); conditions: Homo sapiens, single dose 10 µM, 48 h, read-out: Growth inhibition percent (GI %)
Protocol: as §1, §2

PC-3 = test: NCI-60 one-dose SRB screen (Prostate Cancer); conditions: Homo sapiens, single dose 10 µM, 48 h, read-out: Growth inhibition percent (GI %)
Protocol: as §1, §2

HT29 = test: NCI-60 one-dose SRB screen (Colon Cancer); conditions: Homo sapiens, HT-29, single dose 10 µM, 48 h, read-out: Growth inhibition percent (GI %)
Protocol: as §1, §2

HCC-2998 = test: NCI-60 one-dose SRB screen (Colon Cancer); conditions: Homo sapiens, single dose 10 µM, 48 h, read-out: Growth inhibition percent (GI %)
Protocol: as §1, §2

HCT-15 = test: NCI-60 one-dose SRB screen (Colon Cancer); conditions: Homo sapiens, single dose 10 µM, 48 h, read-out: Growth inhibition percent (GI %)
Protocol: as §1, §2

COLO 205 = test: NCI-60 one-dose SRB screen (Colon Cancer); conditions: Homo sapiens, single dose 10 µM, 48 h, read-out: Growth inhibition percent (GI %)
Protocol: as §1, §2

HCT-116 = test: NCI-60 one-dose SRB screen (Colon Cancer); conditions: Homo sapiens, single dose 10 µM, 48 h, read-out: Growth inhibition percent (GI %)
Protocol: as §1, §2

SW-620 = test: NCI-60 one-dose SRB screen (Colon Cancer); conditions: Homo sapiens, single dose 10 µM, 48 h, read-out: Growth inhibition percent (GI %)
Protocol: as §1, §2

KM12 = test: NCI-60 one-dose SRB screen (Colon Cancer); conditions: Homo sapiens, single dose 10 µM, 48 h, read-out: Growth inhibition percent (GI %)
Protocol: as §1, §2

HS 578T = test: NCI-60 one-dose SRB screen (Breast Cancer); conditions: Homo sapiens, single dose 10 µM, 48 h, read-out: Growth inhibition percent (GI %)
Protocol: as §1, §2

T-47D = test: NCI-60 one-dose SRB screen (Breast Cancer); conditions: Homo sapiens, T47D, single dose 10 µM, 48 h, read-out: Growth inhibition percent (GI %)
Protocol: as §1, §2

MDA-MB-468 = test: NCI-60 one-dose SRB screen (Breast Cancer); conditions: Homo sapiens, single dose 10 µM, 48 h, read-out: Growth inhibition percent (GI %)
Protocol: as §1, §2

BT-549 = test: NCI-60 one-dose SRB screen (Breast Cancer); conditions: Homo sapiens, single dose 10 µM, 48 h, read-out: Growth inhibition percent (GI %)
Protocol: as §1, §2

MDA-MB-231/ATCC = test: NCI-60 one-dose SRB screen (Breast Cancer); conditions: Homo sapiens, single dose 10 µM, 48 h, read-out: Growth inhibition percent (GI %)
Protocol: as §1, §2

MCF-7 = test: NCI-60 one-dose SRB screen (Breast Cancer); conditions: Homo sapiens, MCF7, single dose 10 µM, 48 h, read-out: Growth inhibition percent (GI %)
Protocol: as §1, §2

## NS(=O)(=O)c1ccc(NC(=O)COC(=O)c2cn(-c3ccc(S(N)(=O)=O)cc3)nc2-c2ccccc2)cc1 [Compound 4a, 2-Oxo-2-[(4-sulfamoylphenyl)amino] ethyl 3-phenyl-1-(4-sulfamoylphenyl)-1H-pyrazole-4-carboxylate]
SK-OV-3
  inhibition at 10 µM: < 5%
OVCAR-8
  inhibition at 10 µM: < 5%
IGROV1
  inhibition at 10 µM: < 5%
OVCAR-3
  inhibition at 10 µM: < 5%
OVCAR-5
  inhibition at 10 µM: < 5%
OVCAR-4
  inhibition at 10 µM: < 5%
HOP-62
  inhibition at 10 µM: < 5%
NCI-H23
  inhibition at 10 µM: < 5%
NCI-H226
  inhibition at 10 µM: < 5%
NCI-H460
  inhibition at 10 µM: < 5%
HOP-92
  inhibition at 10 µM: < 5%
NCI-H522
  inhibition at 10 µM: < 5%
EKVX
  inhibition at 10 µM: < 5%
NCI-H322M
  inhibition at 10 µM: < 5%
A549/ATCC
  inhibition at 10 µM: < 5%
DU-145
  inhibition at 10 µM: < 5%
PC-3
  inhibition at 10 µM: < 5%
HT29
  inhibition at 10 µM: < 5%
HCC-2998
  inhibition at 10 µM: < 5%
HCT-15
  inhibition at 10 µM: < 5%
COLO 205
  inhibition at 10 µM: < 5%
HCT-116
  inhibition at 10 µM: 27.8%
SW-620
  inhibition at 10 µM: < 5%
KM12
  inhibition at 10 µM: < 5%
HS 578T
  inhibition at 10 µM: < 5%
T-47D
  inhibition at 10 µM: < 5%
MDA-MB-468
  inhibition at 10 µM: < 5%
BT-549
  inhibition at 10 µM: 43.4%
MDA-MB-231/ATCC
  inhibition at 10 µM: 10.5%
MCF-7
  inhibition at 10 µM: < 5%
